Data reported in paper PMC10892871 (Viruses, 2024).
Several values for one entry are separate records, joined by “and”; a condition that tells them apart may be missing. Identical values can stand only once.

Test system: Omicron BQ.1.1 SARS-CoV-2 variant
Type: cell-based

## O=c1nc(NO)ccn1[C@@H]1O[C@H](CO)[C@@H](O)[C@H]1O [EIDD-1931, reference compound]
read-out: IC50 vs. BQ.1.1 Mean ± SD
  IC50: 1590 nM and 1600 nM
read-out: IC90 vs. BQ.1.1 Mean ± SD
  IC90: 1800 ± 700 nM
